pIC50: −log10 of the molar value. Read-outs that look alike come from different tables or passages of the source. Marks after values point to notes of the source that are not given here.
Legend:
8226/S myeloma cells [1] = assay: MTT cytotoxicity assay, FN-adhered vs BSA/non-adhered cells; type: cell-based, human; settings: for pIC50: Homo sapiens; for mean difference FN-adhered vs BSA: n=3, 1 hour drug exposure
8226/S myeloma cells [2] = assay: Annexin V flow cytometry analysis of apoptosis, FN-adhered vs non-adhered; type: cell-based, human
8226/S = type: cell-based, human
K562 cells [3] = assay: MTT cytotoxicity assay, FN adhered vs suspension; type: cell-based
Method: Plastic 96-well Immunosorp plates (Nunc, Denmark) are coated with 50 μl (40 μg/ml) FN (Life Technologies) or BSA overnight. Cells are washed once and resuspended in serum-free RPMI 1640, then 2×10^4 (K562) cells are added to each FN coated well. 8×10^3 (K562) cells are added to BSA coated wells. Cells are incubated for 2 hours at 37° C., washed with serum free media, and put back into serum-containing media. Following 24 hours in a tissue culture incubator, drug or vehicle control is added to each well for 90 minutes, media is removed and replaced by drug-free media for 96 hours. In some experiments, the drug is allowed to remain in each well for 96 hours. 50 μl 3-[4,5-Dimethylthiazol-2-yl]-2,5-diphenyltetrazolium bromide; Thiazolyl blue (MTT dye) (Sigma) is added to each well for 4 hours, plates are centrifuged and each well aspirated. Dye is solubilized with 100 μl DMSO and plates are read at 540 nm on an automated microtiter plate reader. A blank well containing only medium and drug is also run as a control in all experiments. IC50 values are calculated by linear regression analysis of percent survival vs. drug concentration.
The MTT assay is used to detect differences in the drug sensitivity of FN adhered vs. suspension-cultured cells following a 90 minutes or 96 hours (continuous) exposure to either mitoxantrone or melphalan (L-phenylalanine mustard or LPAM). After a 96 hour period in a cell incubator, cell survival is determined by the ability of viable cells to reduce MTT dye to formazan. IC50 values are derived through linear regression of the log-linear dose-response plots for each cell line to each drug. Student's T-test is used to analyze differences in drug response using data collected from at least three different experiments. FIGS. 8A and 8B depict representative continuous exposure experiments using mitoxantrone and LPAM, respectively.

K562 cells [4] = assay: Annexin V apoptosis analysis, FN adhered vs suspension; type: cell-based
K562/VLA-4 cells = assay: Annexin V apoptosis, FN adhesion with integrin blocking antibodies; type: cell-based; settings: 100 μM, 90 minutes
K562/pcDNA3.1 cells = assay: as above; type: cell-based; settings: 100 μM, 90 minutes
8226/S cells = assay: Adhesion of 8226 cells to fibronectin after bisphosphonate treatment; type: cell-based, human; settings: 100 micromolar for 1.5 hours before plating
K562 cells [5] = assay: Adhesion of K562 cells to FN in presence of BCR/ABL inhibitor; type: cell-based; settings: at the concentrations of inhibitor used in cytotoxicity assays
Method: Cellular adhesion to FN is determined. In some experiments, cells are pre-incubated for 15 minutes with P4G9, P1D6, P4C10, B3B11, or isotype antibody controls prior to application to wells.
The BCR/ABL kinase is believed to be critical to the survival of CML cells through its effects on a number of signal transduction pathways. Inhibitors of this fusion protein show promise as apoptosis-inducing drugs in CML cells. BCR/ABL inhibition by relatively high doses of the tyrphostin AG957 can have negative effects on FN adhesion. At the concentrations of inhibitor used in cytotoxicity assays, the adhesion of K562 cells to FN is not affected by more than 20-40 percent.

[6] = system: BCR/ABL-associated tyrosine kinase activity; assay: Anti-phosphotyrosine Western blotting; settings: K562 cells, 20 μM, 4 hour treatment
[7] = α4 blocking antibody prior to FN adhesion
[8] = α5 blocking antibody prior to adhesion
[9] = 1 uM, 1 hour exposure, Annexin V 24 hours later

Structure (SMILES): N[C@@H](Cc1ccc(N(CCCl)CCCl)cc1)C(=O)O [LPAM, L-phenylalanine nitrogen mustard]
- pIC50 (8226/S myeloma cells [1]; 1 h, read-out: mean IC50, cells grown on BSA): 4.52
- pIC50 (8226/S myeloma cells [1]; read-out: mean IC50, FN-adhered cells): 4.32
- mean difference FN-adhered vs BSA (8226/S myeloma cells [1]): 1.7
- percentage of apoptotic cells, FN-adhered (8226/S myeloma cells [2]; 50 uM, 24 hours): 16.53%
- percentage of apoptotic cells, non-adhered (8226/S myeloma cells [2]; 50 uM, 24 hours): 21.5%
- effect on cell surface integrin expression (8226/S): no immediate effects
- pIC50 (K562 cells [3]; Homo sapiens, K562, 1.5 h, read-out: Fibronectin mean IC50): 3.72
- pIC50 (K562 cells [3]; Homo sapiens, K562, 1.5 h, read-out: Suspension mean IC50): 4.53
- pIC50 (K562 cells [3]; Homo sapiens, K562, 96 h, read-out: Fibronectin mean IC50): 4.24
- pIC50 (K562 cells [3]; Homo sapiens, K562, 96 h, read-out: Suspension mean IC50): 4.59
- Fold resistance (FN adhered over suspension) (K562 cells [3]; continuous exposure (96 hours)): 2.25 fold
- % Control death (K562 cells [4]; 100 μM, 1 hr): 29.3* %
- FN: mean death (K562 cells [4]; 100 μM, 1 hr): 11.0 ± 8.3%
- Suspension: mean death (K562 cells [4]; 100 μM, 1 hr): 37.5 ± 24.0%
- % Control death (K562 cells [4]; 100 μM, cont. exp.): 58.5* %
- FN: mean death (K562 cells [4]; 100 μM, cont. exp.): 23.3 ± 6.4%
- Suspension: mean death (K562 cells [4]; 100 μM, cont. exp.): 39.8 ± 3.2%
- level of cytoprotection by FN adhesion (in comparison to drug treated suspension cells) (K562/VLA-4 cells; adhering through α4 and α5): 30.0±1.5%
- level of cytoprotection by FN adhesion (K562/VLA-4 cells; [7]): 28.4±5.0%
- level of cytoprotection by FN adhesion (K562/VLA-4 cells; [8]): 20.6±1.9%
- level of cytoprotection by FN adhesion (in comparison to drug treated suspension cells) (K562/pcDNA3.1 cells; adhered through α5 alone): 29.9±5.3%
- level of cytoprotection by FN adhesion (K562/pcDNA3.1 cells; [7]): 29.6±2.3%
- level of cytoprotection by FN adhesion (K562/pcDNA3.1 cells; [8]): 0±11.1%

Structure (SMILES): O=C(O)CN(CCN(CC(=O)O)CC(=O)O)CC(=O)O [EDTA]
- effect on adhesion to fibronectin (FN) coated plates (8226/S cells): does not significantly affect cellular adhesion

Structure (SMILES): O=P(O)(O)C(O)(Cn1ccnc1)P(=O)(O)O [Zoledronate]
- effect on adhesion to fibronectin (FN) coated plates (8226/S cells): effective in preventing FN adhesion

Structure (SMILES): COC(=O)c1ccc(NCc2cc(O)ccc2O)cc1 [AG957]
- pIC50 (K562 cells [3]; FN adhered, continuous exposure (96 hours), read-out: Fibronectin mean IC50): 4.89
- Fold resistance (FN adhered over suspension) (K562 cells [3]; continuous exposure (96 hours)): 3.6 fold
- pIC50 (K562 cells [3]; continuous exposure (96 hours), read-out: Suspension mean IC50): 5.44
- effect on adhesion of K562 cells to FN (K562 cells [5]): 20-40%
- BCR/ABL associated tyrosine phosphorylation [6]: completely abrogated

Structure (SMILES): Nc1ccn([C@@H]2O[C@H](CO)[C@@H](O)[C@@H]2O)c(=O)n1 [Ara-C]
- % Control death (K562 cells [4]; 100 μM, cont. exp.): 54.9* %
- FN: mean death (K562 cells [4]; 100 μM, cont. exp.): 6.2 ± 1.6%
- Suspension: mean death (K562 cells [4]; 100 μM, cont. exp.): 11.3 ± 5.5%

Structure (SMILES): O=C1c2c(O)ccc(O)c2C(=O)c2c(NCCNCCO)ccc(NCCNCCO)c21 [Mitoxantrone, mitoxantrone]
- Fold resistance (FN adhered over suspension) (K562 cells [3]; 90 min. exposure): 3.72 fold
- Fold resistance (FN adhered over suspension) (K562 cells [3]; 90 min. exposure, listed as mitoxantrone): approximately 3.7 fold
- pIC50 (K562 cells [3]; Homo sapiens, K562, 1.5 h, 90 min. exposure, read-out: Suspension mean IC50): 6.69
- pIC50 (K562 cells [3]; Homo sapiens, K562, 1.5 h, FN adhered, 90 min. exposure, read-out: Fibronectin mean IC50): 6.12
- pIC50 (K562 cells [3]; Homo sapiens, K562, FN adhered, continuous exposure (96 hours), read-out: Fibronectin mean IC50): 6.49
- pIC50 (K562 cells [3]; Homo sapiens, K562, continuous exposure (96 hours), read-out: Suspension mean IC50): 7.32
- Fold resistance (FN adhered over suspension) (K562 cells [3]; continuous exposure (96 hours)): 6.83 fold
- Fold resistance (FN adhered over suspension) (K562 cells [3]; continuous exposure (96 hours), listed as mitoxantrone): 6.8 fold
- % Control death (K562 cells [4]; 10 μM, cont. exp.): 69.4* %
- FN: mean death (K562 cells [4]; 10 μM, cont. exp.): 29.7 ± 6.2%
- Suspension: mean death (K562 cells [4]; 10 μM, cont. exp.): 42.8 ± 8.4%
- % Control death (K562 cells [4]; 50 μM, 1 hr): 58.3* %
- FN: mean death (K562 cells [4]; 50 μM, 1 hr): 27.0 ± 9.4%
- Suspension: mean death (K562 cells [4]; 50 μM, 1 hr): 46.3 ± 8.4%

Structure (SMILES): CC[C@]1(O)C[C@H]2CN(CCc3c([nH]c4ccccc34)[C@@](C(=O)OC)(c3cc4c(cc3OC)N(C=O)[C@H]3[C@@](O)(C(=O)OC)[C@H](OC(C)=O)[C@]5(CC)C=CCN6CC[C@]43[C@@H]65)C2)C1 [VCR, vincristine]
- % Control death (K562 cells [4]; 10 μM, cont. exp.): 70.2%
- FN: mean death (K562 cells [4]; 10 μM, cont. exp.): 12.5 ± 2.3%
- Suspension: mean death (K562 cells [4]; 10 μM, cont. exp.): 17.8 ± 6.4%

Structure (SMILES): COc1cccc2c1C(=O)c1c(O)c3c(c(O)c1C2=O)C[C@@](O)(C(=O)CO)C[C@@H]3O[C@H]1C[C@H](N)[C@H](O)[C@H](C)O1 [doxorubicin]
- Response lower in FN-adhered cells compared to non-adhered controls (8226/S myeloma cells [1]; FIG. 1, one hour drug exposure): 12.6 fold
- pIC50 (8226/S myeloma cells [1]; 1 h, grown in suspension, one hour drug exposure, representative experiment FIG. 1, read-out: IC50, non-adhered cells): 7.07
- pIC50 (8226/S myeloma cells [1]; 1 hour drug exposure, n=3, read-out: mean IC50, cells grown on BSA): 6.28
- pIC50 (8226/S myeloma cells [1]; 24 hour pre-adhesion, 1 hour drug exposure, n=3, read-out: mean IC50, FN-adhered cells): 5.79
- pIC50 (8226/S myeloma cells [1]; FN-adhered 24 hours prior to one hour drug exposure, representative experiment FIG. 1, read-out: IC50, adhered cells): 6.31
- mean difference FN-adhered vs BSA (8226/S myeloma cells [1]): 6.9
- survival (mitogenic effect) (8226/S myeloma cells [1]; subtoxic concentrations, FN-adhered cells): > 100%
- percentage of apoptotic cells, FN-adhered (8226/S myeloma cells [2]; [9]): 16.3%
- percentage of apoptotic cells, non-adhered controls (8226/S myeloma cells [2]; [9]): 40.3%
- effect on cell surface integrin expression (8226/S; acute exposure, wide range of concentrations, 1-48 hours): no immediate effects

Structure (SMILES): NCCC(O)(P(=O)(O)O)P(=O)(O)O [Pamidronate, 3-Amino-1-hydroxypropane-1,1-diphosphonic acid]
- effect on adhesion to fibronectin (FN) coated plates (8226/S cells): effective in preventing FN adhesion
